For ten compounds, EC50 and Emax results are on record in patent publication US9834542B2, “LXR modulators” (BRISTOL-MYERS SQUIBB COMPANY, priority 2013, dated 2017).

The target in the assay is T1, LXRβ (Homo sapiens, UniProt P55055).
T1 construct: Co-transfection expression plasmids, comprising full-length LXRα (pCMX-h LXRα[…] or LXRβ (pCMX-hLXRβ)); expressed in transfected cells; host or cells: CV-1 African Green Monkey Kidney Cells
T1 sequence (P55055 1-460): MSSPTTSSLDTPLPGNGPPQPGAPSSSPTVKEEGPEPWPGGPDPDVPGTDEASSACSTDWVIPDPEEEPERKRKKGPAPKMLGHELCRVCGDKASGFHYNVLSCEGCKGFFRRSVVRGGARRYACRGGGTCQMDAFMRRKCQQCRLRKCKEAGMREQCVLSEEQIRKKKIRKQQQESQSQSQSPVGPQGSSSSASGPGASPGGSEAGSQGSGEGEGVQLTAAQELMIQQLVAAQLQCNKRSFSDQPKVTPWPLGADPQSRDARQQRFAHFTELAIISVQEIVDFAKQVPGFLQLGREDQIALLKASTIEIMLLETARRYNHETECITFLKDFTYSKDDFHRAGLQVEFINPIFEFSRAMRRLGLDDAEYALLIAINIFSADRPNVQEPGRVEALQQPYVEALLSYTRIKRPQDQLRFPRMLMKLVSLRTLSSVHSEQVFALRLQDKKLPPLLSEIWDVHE
T1 sequence (P19793 1-462 partner): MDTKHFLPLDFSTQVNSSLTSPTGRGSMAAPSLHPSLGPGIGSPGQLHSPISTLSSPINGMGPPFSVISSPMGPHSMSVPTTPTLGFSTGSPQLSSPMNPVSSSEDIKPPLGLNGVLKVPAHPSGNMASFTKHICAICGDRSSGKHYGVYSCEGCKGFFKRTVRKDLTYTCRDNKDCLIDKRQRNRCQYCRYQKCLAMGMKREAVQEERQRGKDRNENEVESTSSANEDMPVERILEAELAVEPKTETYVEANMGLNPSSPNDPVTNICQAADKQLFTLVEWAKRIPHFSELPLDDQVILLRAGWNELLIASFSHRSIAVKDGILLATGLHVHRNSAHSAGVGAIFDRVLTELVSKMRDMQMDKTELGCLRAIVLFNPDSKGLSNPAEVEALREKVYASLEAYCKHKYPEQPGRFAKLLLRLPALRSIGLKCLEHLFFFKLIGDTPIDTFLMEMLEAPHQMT
As to the kind of experiment: Co-transfection assay (LXRE luciferase reporter), LXRβ. The format is cell-based. Conditions: for EC50: CV-1 cells transfected with pCMX-hLXRβ and LXREx1-Tk-Luciferase, 20 hours incubation; for Emax: LXRβ co-transfection, relative to high control 1-(2,4-difluorobenzyl)-2-oxo-6-(4-phenoxyphenyl)-4-(trifluoromethyl)-1,2-dihydropyridine-3-carbonitrile, read-out: % Efficacy. The procedure, abridged: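 CV-1 / pCMX-hLXRβ + LXREx1-Tk-Luc + β-gal; cpd 20 h, 37 °C, ≤0.5% DMSO; Steady-Glo luminescence. 11-pt ½-log curves, duplicate wells, sigmoidal fit → EC50; % efficacy vs high-control agonist, DMSO low control; mean of ≥2 expts.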

For the compound `Cc1ccc(-c2cnnn2-c2cc(-c3cccc(S(C)(=O)=O)c3)ccc2-n2cc(C(F)(F)F)nc2C)cc1` [Example 50, 5-(4-methylphenyl)-1-{3′-(methylsulfonyl)-4-[2-methyl-4-(trifluoromethyl)-1H-imidazol-1-yl]biphenyl-3-yl}-1H-1,2,3-triazole], the concentration giving a half-maximal response (EC50) came to 171 nM and the Emax is 88%.
Regarding `Cc1nc(-c2cc(-c3cc(F)c(CO)c(S(C)(=O)=O)c3)ccc2-n2cc(C(F)(F)F)nc2C)c(-c2cccc(Cl)n2)o1` [Example 427, (3′-(5-(6-chloropyridin-2-yl)-2-methyloxazol-4-yl)-3-fluoro-4′-(2-methyl-4-(trifluoromethyl)-1H-imidazol-1-yl)-5-(methylsulfonyl)biphenyl-4-yl)methanol], it took 143 nM to reach a half-maximal effect (EC50) and the Emax came to 63%.
For `Cc1nc(C(F)(F)F)cn1-c1ccc(-c2cc(F)c(CO)c(S(C)(=O)=O)c2)cc1-n1nncc1Cc1ccc(Cl)cc1` [Example 113], in that order: 524 nM and 72%.
Taken in the same sequence, the figures for `CS(=O)(=O)c1cccc(-c2ccc(-n3cc(C(F)(F)F)nc3Cl)c(-n3nncc3-c3ccc(OC(F)(F)F)cc3)c2)c1` [Example 146, 1-{4-[2-chloro-4-(trifluoromethyl)-1H-imidazol-1-yl]-3′-(methylsulfonyl)biphenyl-3-yl}-5-{4-[(trifluoromethyl)oxy]phenyl}-1H-1,2,3-triazole] were 251 nM and 112%.
As to `COc1cc(OC(F)(F)F)ccc1-c1nc(C)oc1-c1cc(-c2cccc(S(C)(=O)=O)c2)ccc1-n1cc(C(F)(F)F)nc1C` [Example 637, 4-(2-methoxy-4-(trifluoromethoxy)phenyl)-2-methyl-5-(4-(2-methyl-4-(trifluoromethyl)-1H-imidazol-1-yl)-3′-(methylsulfonyl)-[1,1′-biphenyl]-3-yl)oxazole], it took 579 nM to reach a half-maximal effect (EC50) and the Emax came to 40%.
Taken in the same sequence, the figures for `Cc1nc(C(F)(F)F)cn1-c1ccc(-c2cccc(S(C)(=O)=O)c2)cc1-n1nncc1CCc1ccc(Cl)cc1` [Example 129, 5-[2-(4-chlorophenyl)ethyl]-1-{3′-(methylsulfonyl)-4-[2-methyl-4-(trifluoromethyl)-1H-imidazol-1-yl]biphenyl-3-yl}-1H-1,2,3-triazole] were 1500 nM and 65%.
For `Cc1nc(-c2cc(-c3cc(F)c(CO)c(S(C)(=O)=O)c3)ccc2-n2cc(Cl)nc2C)c(-c2ccc3c(c2)OC(F)(F)O3)o1` [Example 424, (4′-(4-chloro-2-methyl-1H-imidazol-1-yl)-3′-(5-(2,2-difluorobenzo[d][1,3]dioxol-5-yl)-2-methyloxazol-4-yl)-3-fluoro-5-(methylsulfonyl)biphenyl-4-yl)methanol], in that order: 46 nM and 59%.
For the compound `Cc1nc(-c2cc(-c3cccc(S(C)(=O)=O)c3)ccc2-n2cc(C(F)(F)F)nc2C)c(-c2ccc3c(c2)CC(C)(C)O3)o1` [Example 419, 5-(2,2-dimethyl-2,3-dihydrobenzofuran-5-yl)-2-methyl-4-(4-(2-methyl-4-(trifluoromethyl)-1H-imidazol-1-yl)-3′-(methylsulfonyl)biphenyl-3-yl)oxazole], the EC50 worked out at 145 nM and the Emax amounted to 66%.
Taken in the same sequence, the figures for `CS(=O)(=O)c1cccc(-c2cc(F)c(-n3cnc(C(F)(F)F)c3)c(-n3nncc3-c3ccc(Cl)cc3)c2)c1` [Example 187, 5-(4-chlorophenyl)-1-{5-fluoro-3′-(methylsulfonyl)-4-[4-(trifluoromethyl)-1H-imidazol-1-yl]biphenyl-3-yl}-1H-1,2,3-triazole] were 518 nM and 92%.
Taken in the same sequence, the figures for `CCc1nc(C(F)(F)F)cn1-c1ccc(-c2cccc(S(C)(=O)=O)c2)cc1-n1nncc1-c1ccc(OC(F)(F)F)cc1` [Example 227, 1-(4-(2-ethyl-4-(trifluoromethyl)-1H-imidazol-1-yl)-3′-(methylsulfonyl)-[1,1′-biphenyl]-3-yl)-5-(4-(trifluoromethoxy)phenyl)-1H-1,2,3-triazole] were 865 nM and 118%.
